Measured values from patent US20040028760A1, “Method of treating inflammation and inflammation-related pain” (Michigan State University, priority 2002, published 2004).
Converted amounts (≈) assume the structure as drawn. “Also recorded” adds a separate entry of the source. Read-outs that look alike come from different tables or passages of the source. Blank lines part the entries; values can stand above or below the molecule they belong to.

Columns and labels:
[1] = target: T1, human PGHS-II (COX-II) enzyme (Homo sapiens, UniProt P35354); assay: Cyclooxygenase inhibitory assay (initial rate of O2 uptake), COX-II; format: biochemical
T1 construct: made in house; host or cells: insect cells (lysates)
T1 sequence (P35354 18-604): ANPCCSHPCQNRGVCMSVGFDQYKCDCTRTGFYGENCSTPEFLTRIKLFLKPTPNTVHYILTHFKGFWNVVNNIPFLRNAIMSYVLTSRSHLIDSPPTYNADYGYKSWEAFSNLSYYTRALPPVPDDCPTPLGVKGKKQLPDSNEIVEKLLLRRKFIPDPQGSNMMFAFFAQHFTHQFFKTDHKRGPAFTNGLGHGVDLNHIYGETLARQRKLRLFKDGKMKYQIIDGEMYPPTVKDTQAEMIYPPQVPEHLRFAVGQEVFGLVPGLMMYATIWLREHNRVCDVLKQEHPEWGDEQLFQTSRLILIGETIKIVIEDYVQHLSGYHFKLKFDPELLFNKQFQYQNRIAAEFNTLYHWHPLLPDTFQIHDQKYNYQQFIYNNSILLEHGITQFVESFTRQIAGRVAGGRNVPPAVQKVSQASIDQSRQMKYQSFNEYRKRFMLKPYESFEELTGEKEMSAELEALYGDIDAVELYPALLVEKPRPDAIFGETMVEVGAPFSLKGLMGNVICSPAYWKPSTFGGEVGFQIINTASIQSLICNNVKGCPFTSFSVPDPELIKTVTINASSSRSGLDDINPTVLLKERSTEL
Experimental: (§1) Prostaglandin H synthase isozymes-I (PGHS-I or COX-I) was prepared from ram seminal vesicles. PGHS-II or COX-II enzyme for the assay was prepared from lysates of cloned insect cell with human PGHS-II enzyme. Each assay mixture contained 600 μL of 0.1 M Tris buffer (pH 7), 1 mM phenol, 17 μg hemoglobin and 10 μL of COX-I or 20-30 μL of COX-II enzymes. Crude extracts or pure compounds were preincubated with 25-100 μg mL^−1 in DMSO for 5-minutes with COX-I or COX-II enzymes in the assay chamber at 37° C. […] Instantaneous inhibition of the enzyme was determined by monitoring the initial rate of O2 uptake using an O2 electrode.

cyclooxygenase = target: T2, cyclooxygenase; format: biochemical
T2 construct: "prepared from ram seminal vesicles"
Experimental: as §1

COX-II = target: T3, COX-II (Ovis aries, UniProt P79208); settings: less than 500 μM; cited from earlier work
T3 sequence (P79208 17-603): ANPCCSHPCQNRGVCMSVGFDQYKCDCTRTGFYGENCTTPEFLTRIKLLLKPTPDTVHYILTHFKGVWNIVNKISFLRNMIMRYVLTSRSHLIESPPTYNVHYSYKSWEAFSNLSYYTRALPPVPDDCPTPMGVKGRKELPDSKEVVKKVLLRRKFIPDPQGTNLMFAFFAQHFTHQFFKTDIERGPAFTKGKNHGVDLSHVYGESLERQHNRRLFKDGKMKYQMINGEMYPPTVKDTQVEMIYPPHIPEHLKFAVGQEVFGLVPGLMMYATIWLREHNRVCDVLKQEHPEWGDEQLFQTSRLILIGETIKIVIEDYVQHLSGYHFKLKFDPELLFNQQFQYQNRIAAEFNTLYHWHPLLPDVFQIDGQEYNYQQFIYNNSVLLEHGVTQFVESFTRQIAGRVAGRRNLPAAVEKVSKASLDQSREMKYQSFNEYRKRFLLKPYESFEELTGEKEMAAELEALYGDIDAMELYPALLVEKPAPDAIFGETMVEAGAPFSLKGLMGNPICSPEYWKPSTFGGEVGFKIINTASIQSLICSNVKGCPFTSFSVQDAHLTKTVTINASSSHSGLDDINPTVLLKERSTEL

COX-I = settings: less than 500 μM; cited from earlier work
[2] = target: T4, prostaglandin H endoperoxide synthase-I (COX-I) (Ovis aries, UniProt P05979); assay: Cyclooxygenase inhibitory assay (initial rate of O2 uptake), COX-I; format: biochemical, ram; settings: for inhibition at 100 µg/mL: read-out: COX-I inhibitory activity
T4 construct: was prepared from ram seminal vesicles; from tissue; host or cells: ram seminal vesicles
T4 sequence (P05979 25-600): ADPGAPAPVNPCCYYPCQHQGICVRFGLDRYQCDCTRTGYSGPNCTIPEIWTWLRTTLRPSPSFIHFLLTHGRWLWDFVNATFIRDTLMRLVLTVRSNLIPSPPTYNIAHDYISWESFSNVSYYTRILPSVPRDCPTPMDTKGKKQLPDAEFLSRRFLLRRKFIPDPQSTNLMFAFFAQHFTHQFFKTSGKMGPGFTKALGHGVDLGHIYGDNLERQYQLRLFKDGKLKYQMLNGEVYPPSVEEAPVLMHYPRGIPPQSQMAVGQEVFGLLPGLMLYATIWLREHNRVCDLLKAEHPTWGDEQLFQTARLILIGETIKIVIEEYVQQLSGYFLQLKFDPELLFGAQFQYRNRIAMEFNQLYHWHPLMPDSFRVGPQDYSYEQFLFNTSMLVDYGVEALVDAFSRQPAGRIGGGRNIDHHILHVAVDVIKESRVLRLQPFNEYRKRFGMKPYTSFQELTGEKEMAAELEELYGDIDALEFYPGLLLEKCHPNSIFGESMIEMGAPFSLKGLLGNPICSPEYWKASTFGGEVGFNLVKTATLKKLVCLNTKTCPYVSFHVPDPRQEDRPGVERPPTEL
Experimental: as §1

[3] = 100 μg mL^−1, compared to solvent control

Compound: COc1cc(OC)c(OC)cc1C=O [Synthetic 2,4,5-trimethoxybenzaldehyde, 2,4,5-trimethoxybenzaldehyde, reference compound]
COX-II inhibition of commercial synthetic sample versus natural product (in words) ([1]; 25-100 μg mL^−1): slightly lower COX-II activity than natural form

Compound: COc1ccc2cc([C@H](C)C(=O)O)ccc2c1 [Naproxen, reference compound]
COX-II/COX-I ratio [1]: 0.92
IC50 values (cyclooxygenase; concentration at which the reference drug was assayed, isozyme not stated): 2.06 µg/mL (≈ 8.95 µM)

inhibition at 100 µg/mL ([1]; 100 μg mL^−1): 68.4%
COX-II/COX-I ratio [1, 3]: 1.51
inhibition at 100 µg/mL ([2]; 100 μg mL^−1): 45.3%
Compound: CCCCCCCC/C=C\CCCCCCCC(=O)O [Compound 2, oleic acid]
COX-II inhibition (in words) (COX-II): not COX-I or COX-II inhibitory
COX-I inhibition (in words) (COX-I): not COX-I or COX-II inhibitory

Compound: C/C=C/c1cc(OC)c(OC)cc1OC [Compound 3, trans-asarone]
COX-II inhibitory activity ([1]; 100 μg mL^−1): 64.39%
COX-II/COX-I ratio [1, 3]: 1.4
COX-I inhibitory activity ([2]; 100 μg mL^−1): 46.15%

Compound: CS(=O)(=O)c1ccc(C2=C(c3ccccc3)C(=O)OC2)cc1 [Vioxx, reference compound]
COX-II/COX-I ratio [1]: 75

inhibition at 100 µg/mL ([1]; 100 μg mL^−1): 0%
inhibition at 100 µg/mL ([2]; 100 μg mL^−1): 3.15%
Compound: CC(C)=CCC/C(C)=C/CO [Compound 4, geraniol]
COX-II inhibition (result in words) ([1]; 100 μg mL^−1): not active; also recorded: did not inhibit
COX-I inhibition (result in words) ([2]; 100 μg mL^−1): not active; also recorded: did not inhibit

Compound: COc1cc(OC)c(OC)cc1C=O [Compound 1, 2,4,5-trimethoxybenzaldehyde]
inhibition at 25 µg/mL ([1]; 25 μg mL^−1): > 30%
inhibition at 100 µg/mL ([1]; 100 μg mL^−1): 52.7%
selectivity towards COX-II enzyme inhibition (in words) ([1]; 100 μg mL^−1, COX-II versus COX-I): selectivity towards COX-II enzyme inhibition; also recorded: selective inhibition of COX-II enzyme
COX-II/COX-I ratio [1, 3]: 17.68
inhibition at 100 µg/mL [2]: 3.32%

COX-II inhibition (result in words) ([1]; 100 μg mL^−1): didn't exhibit any inhibition
COX-I inhibition (result in words) ([2]; 100 μg mL^−1): didn't exhibit any inhibition
Compound: COc1cc(OC)c(C(=O)O)cc1OC [2,4,5-trimethoxybenzoicacid, reference compound]

IC50 values (cyclooxygenase): 2.52 µg/mL (≈ 12.2 µM)
Compound: CC(C)Cc1ccc(C(C)C(=O)O)cc1 (stereo not drawn) [Ibuprofen]
